From paper PMC6978316, “Development of chimeric peptides to facilitate the neutralisation of lipopolysaccharides during bactericidal targeting of multidrug-resistant Escherichia coli” (Communications Biology, 2020) come the findings set out here.

Like-named read-outs stand apart in the source and are kept apart here. Where a SMILES comes first, the peptide text is derived from it. Bridges are numbered along the chain shown (N, C = ends). Where no end group is shown, it is not given here.

For one data set, the system named is pepsin. The format is in vitro ADME.
The nature of data set [1]: Biodistribution of FITC-labeled peptides (in vivo fluorescence imaging). The following applies: nude mice, FITC-labeled peptide 5 mg per kg intraperitoneally. The procedure:
The nude mice were intraperitoneally injected with 5 mg per kg FITC-labeled A6, G6, and N6, respectively. Free FITC was used as a negative control.

The next data set can be described thus: in vitro. To be noted: mouse, serum, peptide remaining in serum, Mean, mice serum, 37 °C, RP-HPLC, mean of n = 3 (source data Fig. 2f). The procedure:
The thermal, pH and enzyme stability of A6 and G6 were evaluated against MDR E. coli CVCC195 using a previous method with minor revisions. The N6, A6, and G6 solutions were treated at different temperatures (20–100 °C) for 1 h, dissolved and incubated at different pH values (2–10) for 3 h, or incubated with trypsin or pepsin for 4 h. The inhibition zone diameters were measured after incubation at 37 °C for 18–24 h. The peptides were dissolved in H2O or mice serum at 37 °C to detect their serum stability and samples were removed at different time points to determine their residual activity by the inhibition zone or reverse-phase high-performance liquid chromatography (RP-HPLC) methods[62],[63].

Another data set relates to trypsin. The format is in vitro ADME.
The next data set relates to tested bacterial strains. Briefly: MIC, range over all tested strains (peer review file). Type of data set: cell-based. The following applies: manuscript lines quoted in the peer review file. As for the experimental part: The MIC values of A6, G6, the parental peptides (N6 and LBP14), LBPN6, scramble controls (N6CK, A6CK, and G6CK), and PMB were determined by the microtiter broth dilution method. The tested strains included Gram-negative bacteria, Gram-positive bacteria, and fungi and were cultured to the logarithmic growth phase, diluted to 10^5 CFU per ml, and added into 96-well plates (90 μl per well). Peptides or antibiotic were diluted with PBS by 2-fold dilution and were added to each well (10 μl per well). Polymyxin B (PMB) and PBS were used as the positive and negative control, respectively. […] All experiments were repeated three times.

The subject of a further data set is E. coli LPS. Put plainly: BODIPY-TR-cadaverine (BC) displacement assay. Type of data set: binding, Escherichia coli. Details: BC displacement from LPS, Mean: unit not given here. The following applies: for BC displacement from LPS, Mean: mean of n = 3. The procedure:
The affinity of SCPs (A6, G6, and N6) to E. coli LPS was detected by the fluorescent BC probe. The binding of fluorescent probe with LPS can cause fluorescence quenching. When peptides bind to LPS, BC probe can be replaced, which can result in an increase in fluorescence. Equal volumes of LPS (40 μg per ml) and BC probe (10 μM) in 50 mM Tris buffer (pH 7.4) were mixed and added into a black 96-well microtiter plate (180 μl mixture per well), followed by the addition of different concentrations of A6, G6, or N6 (20 μl per well). Ampicillin and PMB were used as the negative and positive control, respectively. Changes in fluorescence were measured by a fluorescence spectrophotometry at room temperature (excitation: 580 nm, emission: 620 nm) and the BC displacement rate was calculated.

A further data set has as its system E. coli CVCC195. The format is cell-based, Escherichia coli. The following applies: for Fold change in MIC: E. coli CVCC195. The procedure:
Bacterial resistance against the peptides was assessed via the MIC assays. […] After 16–18 h of incubation at 37 °C, cells from the second highest concentration showing visible growth were used to inoculate the subsequent cultures. The MIC values for drug passage cultures were obtained as described above. This process was repeated for 30 d.

With `CC(C)[C@@H]1NC(=O)CNC(=O)[C@H](CC(N)=O)NC(=O)[C@H](CCCNC(=N)N)NC(=O)[C@H](Cc2ccc(O)cc2)NC(=O)[C@H](C(C)C)NC(=O)[C@@H](NC(=O)[C@@H](NC(=O)[C@H](CC(N)=O)NC(=O)[C@H](Cc2c[nH]c3ccccc23)NC(=O)[C@H](C)NC(=O)[C@H](Cc2ccccc2)NC(=O)CN)C(C)C)CSSC[C@@H](C(=O)N[C@@H](Cc2cnc[nH]2)C(=O)N[C@@H](CCCNC(=N)N)C(=O)N[C@@H](CCCNC(=N)N)C(=O)N[C@@H](C)C(=O)N[C@@H](CC(N)=O)C(=O)O)NC(=O)[C@H](C(C)C)NC(=O)[C@H](CCCNC(=N)N)NC1=O` [N6] (H-GFAWNVCVYRNGVRVCHRRAN-OH; disulfide 7-16), in the data set on pepsin, the “antibacterial activity after pepsin (inhibition zone diameter), Mean” value is on record as 1.866 and the “antibacterial activity without enzyme (inhibition zone diameter), Mean” value worked out at 2.004. The “time after injection at which the fluorescence disappeared / peptide was excreted” value in data set [1] is 72 h. This compound also had a fraction remaining at 1 h in “in vitro” (1 h) of 93%. The amount remaining at 2 h in the data set “in vitro” (2 h) was determined as 87.5%. Moreover, the share remaining at 4 h in the data set “in vitro” (4 h) turned out to be 77.3%. Besides, in the data set with trypsin, the “antibacterial activity after trypsin (inhibition zone diameter), Mean” value is recorded as 0.
Regarding “RVQGRWKVRASFFKEAAAKEAAAKVCVYRGFAWNCHRRANNGVRV (disulfide 26-35) [A6CK]”, the “MICs against the tested bacterial strains (range)” value against tested bacterial strains is “hardly any activity”.
On to `CC1(C)S[C@@H]2[C@H](NC(=O)[C@H](N)c3ccccc3)C(=O)N2[C@H]1C(=O)O` [AMP, Ampicillin], for which the “BC displacement from LPS, Mean” value with E. coli LPS (0.05 μM, LPS 40 μg per ml + BC 10 μM, 50 mM Tris pH 7.4, ex 580/em 620 nm) is -0.1364; in the data set on E. coli LPS (0.1 μM), -0.2089; in the data set on E. coli LPS (0.5 μM) it was -1.734; in the data set with E. coli LPS (1 μM) it was -1.14; in the data set on E. coli LPS (5 μM) it was -3.263; with E. coli LPS (10 μM) it was -3.845. Moreover, the “BC displacement from LPS, Mean” value with E. coli LPS (50 μM) is -4.033; with E. coli LPS (100 μM), -4.227. The BC displacement ratio result with E. coli LPS (100 μM) was “did not displace BC probe”.
As for `CC(C)[C@H](N)C(=O)N[C@H]1CSSC[C@@H](C(=O)N[C@@H](Cc2c[nH]cn2)C(=O)N[C@@H](CCCNC(=N)N)C(=O)N[C@@H](CCCNC(=N)N)C(=O)N[C@@H](C)C(=O)N[C@@H](CC(N)=O)C(=O)N[C@@H](CC(N)=O)C(=O)NCC(=O)N[C@H](C(=O)N[C@@H](CCCNC(=N)N)C(=O)N[C@H](C(=O)O)C(C)C)C(C)C)NC(=O)[C@H](CC(N)=O)NC(=O)[C@H](Cc2c[nH]c3ccccc23)NC(=O)[C@H](C)NC(=O)[C@H](Cc2ccccc2)NC(=O)CNC(=O)[C@H](CCCNC(=N)N)NC(=O)[C@H](Cc2ccc(O)cc2)NC(=O)[C@H](C(C)C)NC1=O` [N6CK] (H-VCVYRGFAWNCHRRANNGVRV-OH; disulfide 2-11; N-terminus and C-terminus assumed), in the data set on tested bacterial strains, the “MICs against the tested bacterial strains (range)” value is on record as “hardly any activity”.
In the case of `CNC(C)C1CCC(N)C(OC2C(N)CC(N)C(OC3OCC(C)(O)C(NC)C3O)C2O)O1` (centres unmarked) [Gentamicin, gentamicin], the “Fold change in MIC” value in the data set on E. coli CVCC195 (Day 1 of serial passage) turned out to be 1 fold; in the data set on E. coli CVCC195 (Day 2 of serial passage) it was 2 fold; with E. coli CVCC195 (Day 3 of serial passage) it was 2 fold; with E. coli CVCC195 (Day 4 of serial passage), 1 fold; in the data set on E. coli CVCC195 (Day 5 of serial passage), 2 fold; in the data set with E. coli CVCC195 (Day 6 of serial passage) it was 2 fold. Besides, the “Fold change in MIC” value with E. coli CVCC195 (Day 7 of serial passage) is 4 fold; with E. coli CVCC195 (Day 8 of serial passage) it was 4 fold; with E. coli CVCC195 (Day 9 of serial passage) it was 4 fold; in the data set with E. coli CVCC195 (Day 10 of serial passage) it was 8 fold; with E. coli CVCC195 (Day 11 of serial passage) it was 8 fold; in the data set with E. coli CVCC195 (Day 12 of serial passage) it was 8 fold. For the same compound, the “Fold change in MIC” value is on record as 8 fold with E. coli CVCC195 (Day 13 of serial passage); 16 fold in the data set with E. coli CVCC195 (Day 14 of serial passage); 16 fold in the data set with E. coli CVCC195 (Day 15 of serial passage); 16 fold in the data set on E. coli CVCC195 (Day 16 of serial passage); 16 fold in the data set on E. coli CVCC195 (Day 17 of serial passage); 16 fold with E. coli CVCC195 (Day 18 of serial passage). Moreover, the “Fold change in MIC” value with E. coli CVCC195 (Day 19 of serial passage), in the data set on E. coli CVCC195 (Day 20 of serial passage), in the data set with E. coli CVCC195 (Day 21 of serial passage), with E. coli CVCC195 (Day 22 of serial passage), with E. coli CVCC195 (Day 23 of serial passage) and with E. coli CVCC195 (Day 24 of serial passage) was 16 fold each time. Further, the “Fold change in MIC” value in the data set with E. coli CVCC195 (Day 25 of serial passage), with E. coli CVCC195 (Day 26 of serial passage), with E. coli CVCC195 (Day 27 of serial passage), in the data set with E. coli CVCC195 (Day 28 of serial passage), in the data set on E. coli CVCC195 (Day 29 of serial passage) and in the data set with E. coli CVCC195 (Day 30 of serial passage) was 16 fold each time. Besides, the MIC elevation against E. coli CVCC195 (at 7 d of serial passage) was 3 fold; against E. coli CVCC195 (at 15 d of serial passage), 15 fold.
